One data set has as its target T1, CYP2B6 (Homo sapiens, UniProt P20813).
T1 construct: tissue Xenotech H0630; host or cells: pooled human liver microsomes
T1 sequence (P20813 1-491): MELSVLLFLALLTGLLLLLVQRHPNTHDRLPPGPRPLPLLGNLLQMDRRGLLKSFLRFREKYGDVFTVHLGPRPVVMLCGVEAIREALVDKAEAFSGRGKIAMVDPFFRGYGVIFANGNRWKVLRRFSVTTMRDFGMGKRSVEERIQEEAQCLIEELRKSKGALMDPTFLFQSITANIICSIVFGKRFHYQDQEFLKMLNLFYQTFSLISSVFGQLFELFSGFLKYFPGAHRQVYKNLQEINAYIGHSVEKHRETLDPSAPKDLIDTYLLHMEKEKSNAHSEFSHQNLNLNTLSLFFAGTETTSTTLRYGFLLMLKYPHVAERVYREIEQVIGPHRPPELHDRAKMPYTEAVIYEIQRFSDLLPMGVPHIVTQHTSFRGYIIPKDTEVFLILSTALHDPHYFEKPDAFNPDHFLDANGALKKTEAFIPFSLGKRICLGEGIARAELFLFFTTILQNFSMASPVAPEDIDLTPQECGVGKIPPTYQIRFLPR
As to the kind of experiment: Cytochrome P450 inhibition assay in HLMs. In kind it is in vitro ADME. The following applies: Bupropion hydroxylation, pooled HLMs, up to 50 μM. As to the method: (§1) Cytochrome P450 Inhibition Assay: […] All experiments were performed in triplicate. Phenacetin O-deethylase, coumarin hydroxylase, bupropion hydroxylase, amodiaquine N-deethylase, tolbutamide 4-hydroxylase, S-mephenytoin hydroxylase, dextromethorphan O-demethylase, chlorozoxazone 6-hydroxylase, and midazolam 1’-hydroxylase activities were determined as probe activities for CYP1A2, CYP2A6, CYP2B6, CYP2C8, CYP2C9, CYP2C19, CYP2D6, CYP2E1, and CYP3A, respectively, using cocktail incubation and tandem mass spectrometry, as described previously^2,3.

The target in the next data set is T2, CYP2C9 (Homo sapiens, UniProt P11712).
T2 construct: tissue Xenotech H0630; host or cells: pooled human liver microsomes
T2 sequence (P11712 whole entry): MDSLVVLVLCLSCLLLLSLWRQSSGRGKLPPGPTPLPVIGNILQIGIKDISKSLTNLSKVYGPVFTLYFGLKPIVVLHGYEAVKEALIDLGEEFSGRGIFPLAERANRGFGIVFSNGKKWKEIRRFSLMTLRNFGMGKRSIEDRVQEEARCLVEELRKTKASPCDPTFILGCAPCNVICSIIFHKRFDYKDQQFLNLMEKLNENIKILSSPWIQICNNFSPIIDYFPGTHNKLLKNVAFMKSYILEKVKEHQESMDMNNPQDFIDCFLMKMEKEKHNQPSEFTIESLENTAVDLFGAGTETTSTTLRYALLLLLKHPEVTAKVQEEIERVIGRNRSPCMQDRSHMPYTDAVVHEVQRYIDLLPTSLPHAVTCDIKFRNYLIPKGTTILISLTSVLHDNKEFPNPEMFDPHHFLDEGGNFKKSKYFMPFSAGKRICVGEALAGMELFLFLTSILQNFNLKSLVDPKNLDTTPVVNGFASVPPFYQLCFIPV
Put plainly: Cytochrome P450 inhibition assay in HLMs. In kind it is in vitro ADME. The settings on record: Diclofenac 4-hydroxylation, pooled HLMs, up to 50 μM. As for the experimental part: as §1

Another data set deals with T3, CYP2D6 (Homo sapiens, UniProt P10635).
T3 construct: tissue Xenotech H0630; host or cells: pooled human liver microsomes
T3 sequence (P10635 whole entry): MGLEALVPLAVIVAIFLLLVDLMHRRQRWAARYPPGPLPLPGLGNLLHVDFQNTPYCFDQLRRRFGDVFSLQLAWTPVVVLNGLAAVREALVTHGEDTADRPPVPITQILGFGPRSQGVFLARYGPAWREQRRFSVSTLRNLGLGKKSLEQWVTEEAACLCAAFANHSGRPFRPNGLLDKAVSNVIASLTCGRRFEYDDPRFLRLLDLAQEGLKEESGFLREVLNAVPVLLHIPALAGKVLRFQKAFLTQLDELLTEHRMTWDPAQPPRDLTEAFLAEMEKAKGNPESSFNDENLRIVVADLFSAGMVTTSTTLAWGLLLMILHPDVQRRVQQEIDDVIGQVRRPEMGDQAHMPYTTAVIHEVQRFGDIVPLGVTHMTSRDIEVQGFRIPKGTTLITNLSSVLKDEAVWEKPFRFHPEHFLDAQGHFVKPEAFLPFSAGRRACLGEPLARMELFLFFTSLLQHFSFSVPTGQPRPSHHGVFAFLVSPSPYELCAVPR
Put plainly: Cytochrome P450 inhibition assay in HLMs. In kind it is in vitro ADME. The following applies: Dextromethorphan O-demethylation, pooled HLMs, up to 50 μM. As for the experimental part:
as §1

The target of the next data set is T4, CYP2E1 (Homo sapiens, UniProt P05181).
T4 construct: tissue Xenotech H0630; host or cells: pooled human liver microsomes
T4 sequence (P05181 whole entry): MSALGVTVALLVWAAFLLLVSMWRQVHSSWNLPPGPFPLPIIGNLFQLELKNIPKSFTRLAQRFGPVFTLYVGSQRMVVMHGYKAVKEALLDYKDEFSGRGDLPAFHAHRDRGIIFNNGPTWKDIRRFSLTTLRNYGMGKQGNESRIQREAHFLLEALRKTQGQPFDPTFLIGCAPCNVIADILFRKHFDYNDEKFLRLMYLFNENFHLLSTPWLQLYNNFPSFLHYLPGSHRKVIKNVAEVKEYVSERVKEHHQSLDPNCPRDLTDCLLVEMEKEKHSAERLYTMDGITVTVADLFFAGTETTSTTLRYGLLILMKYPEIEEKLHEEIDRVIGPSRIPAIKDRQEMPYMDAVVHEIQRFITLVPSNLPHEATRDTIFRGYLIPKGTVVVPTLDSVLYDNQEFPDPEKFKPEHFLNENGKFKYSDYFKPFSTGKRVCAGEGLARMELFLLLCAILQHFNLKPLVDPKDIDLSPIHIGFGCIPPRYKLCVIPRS
As to the kind of experiment: Cytochrome P450 inhibition assay in HLMs. In kind it is in vitro ADME. The following applies: Chlorozoxazone 6-hydroxylation, pooled HLMs, up to 50 μM. As for the experimental part: as §1

A further data set deals with CYP3A (Homo sapiens, UniProt P08684). Put plainly: Cytochrome P450 inhibition assay in HLMs. Format: in vitro ADME. The following applies: pooled human liver microsomes, probe midazolam (1'-hydroxylation), up to 50 μM. As to the method: as §1
CYP3A, sequence (P08684 2-503): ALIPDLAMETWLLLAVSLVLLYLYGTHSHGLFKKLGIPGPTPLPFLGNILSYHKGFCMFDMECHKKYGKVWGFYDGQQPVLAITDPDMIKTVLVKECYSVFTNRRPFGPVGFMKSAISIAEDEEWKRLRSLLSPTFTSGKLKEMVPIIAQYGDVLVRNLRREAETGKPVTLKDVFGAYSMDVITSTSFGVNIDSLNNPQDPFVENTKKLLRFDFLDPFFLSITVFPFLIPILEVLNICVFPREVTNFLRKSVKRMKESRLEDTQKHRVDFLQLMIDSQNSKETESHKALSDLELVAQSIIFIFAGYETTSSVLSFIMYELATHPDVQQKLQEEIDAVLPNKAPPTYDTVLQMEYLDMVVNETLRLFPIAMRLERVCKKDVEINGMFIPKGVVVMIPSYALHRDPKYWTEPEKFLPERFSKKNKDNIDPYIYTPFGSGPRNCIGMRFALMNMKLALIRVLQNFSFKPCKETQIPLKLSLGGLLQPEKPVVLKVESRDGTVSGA
(Microsomes from liver hold many membrane-bound enzymes, among them those of drug oxidation.)

A further data set concerns colon. As to the kind of experiment: Colonic histopathology in the BLM mouse study. In kind it is in vivo, ICR mice. The settings on record: BLM mice; ACF-2 10 mg/kg i.p. every 2 days or NIDB 60 mg/kg/day. The text has this: Fixed left lung lobes were paraffin-embedded, sectioned (4 μm), and stained with H&E or MT. A blinded pathologist graded pulmonary fibrosis on the 1-8 Ashcroft scale; representative images illustrate typical lesions. Colon samples were processed by the swiss-roll method, stained with H&E, and scored for inflammation and erosion, which were combined into a composite histological score. All animal studies were approved by the Institutional Animal Care and Use Committee of Jeju National University (Approval ID: 2024-0058) and conducted in compliance with institutional guidelines. Male ICR mice (6 weeks old, average body weight 27 g) were purchased from […] (South Korea) and housed under controlled temperature (22 ± 2 °C) and humidity (0.0 ± 15.0 %) on a 12 hr light-dark cycle with free access to food and water. […] Colon tissue: Colons were harvested, flushed with 1xPBS, and prepared using the swiss-roll method before embedding in paraffin. Sections of 4 μm thickness were subjected to H&E staining as described above. Colonic injury was evaluated by two independent parameters: (i) inflammation score (0-3) and (ii) erosion score (0-3). A composite histological score was then calculated as the sum of inflammation and erosion scores for each sample.

In data set [1] the test system is A549. Put plainly: Intracellular ROS staining (DHR123 microscopy, CM-H2DCFDA flow cytometry). In kind it is cell-based, human. As to the method: CellROX™ Deep Red or DHR123 fluorescence microscopy, and CM-H2DCFDA flow cytometry, were used to quantify intracellular ROS.
Dihydrorhodamine (DHR)123: Cells were similarly seeded at 3 × 10⁴ cells per well in 1 mL of medium on Cell Culture Slide I. After the desired treatments and incubation times, the medium was removed, cells were washed with PBS, and 10 µM Dihydrorhodamine 123 in PBS was applied for 30 min at 37 °C. Hoechst 33342 (0.5 µg/mL) was added for the final 10 min. Cells were then washed in PBS and imaged with the EVOS™ M7000 system in the Cy2 channel.
CM-H₂DCFDA: Cells (2 × 10⁵) were plated in 2 mL of medium per well in a 6-well plate. After treatment for the indicated times, the medium was removed, and cells were washed once with PBS. CM-H₂DCFDA (10 µM) in PBS was added for 30 min at 37 °C, followed by a 10 min equilibration in PBS. Cells were then detached with trypsin for 1 min, neutralized with FBS, pelleted by centrifugation, and resuspended in PBS. Fluorescence was measured using a CytoFLEX LX flow cytometer (excitation/emission: 485/520 nm).

For data set [2], the system named is A549. As to the kind of experiment: Western blot of HIF-1α, fibrosis and EMT markers in A549. Format: cell-based, human. On the technique in general: A western blot detects proteins with antibodies after separation by electrophoresis.
For a further data set, the system named is MRC-5. Put plainly: Western blot of fibrosis markers in MRC-5. In kind it is cell-based, human. The settings on record: MRC-5, TGF-β1 and ACF-2 co-treatment. As to the method:
RIPA lysates (BCA-normalized) were resolved by SDS-PAGE, transferred to nitrocellulose, and probed with the antibodies listed in Appendix S2. Protocols & Materials.
Cells were lysed in RIPA buffer supplemented with a Protease Inhibitor Cocktail. Protein concentrations were determined using the SMART™ BCA Protein Assay Kit. Equal amounts of protein were separated by SDS-PAGE and transferred onto nitrocellulose membranes. Membranes were blocked with 5% skim milk in TBST and incubated overnight at 4 °C with the primary antibodies indicated below. Membranes were then washed and incubated for 1 hr at room temperature with the appropriate secondary antibodies. Protein bands were visualized using the Davinch Western Imaging system according to the manufacturer’s instructions. Band intensities were quantified using ImageJ software after background subtraction. The signal intensity of each target protein was normalized to the corresponding GAPDH band, and values were further normalized to the control group (set to 1 for each independent experiment).

Each structure is given as a SMILES string.

The IC50 is the concentration needed to halve the response being measured. On to `COc1ccc(-c2c(-c3ccc(O)c(OC)c3)oc3cc(OC)c(OC)cc3c2=O)cc1` [ACF-2], for which the IC50 was greater than 50 µM on CYP2B6; 18.1 ± 4.61 µM at CYP2C9; 40.2 ± 12.4 µM at CYP2D6; greater than 50 µM against CYP2E1; greater than 50 µM against CYP3A. Besides, the “composite histological score of colon (inflammation + erosion)” value with colon is listed as “did not induce colonic inflammation or erosion”. For the same compound, in the data set with A549 [1] (A549, ACF-2 7 μM, TGF-β1 6 h), the “TGF-β1-induced ROS (DCFDA flow cytometry)” value is listed as “effectively suppressed TGF-β1-induced ROS elevation”. For the same compound, the “TGF-β1-induced ROS (DHR123)” value in the data set with A549 [1] (A549, TGF-β1 6 h, NAC 10 mM as comparator) is listed as “reduced TGF-β1-induced ROS accumulation even more effectively than NAC”. In addition, in the data set with A549 [2] (A549, BLM 15 μM, 10 h), the “BLM-induced HIF-1α levels (Western blot)” value is “effectively suppressed”. Also, the “fibronectin, α-SMA, N-cadherin (Western blot)” value with A549 [2] (A549, TGF-β1 24 h, ACF-2 7 μM) was “coordinated suppression of fibrosis markers (fibronectin, α-SMA) and EMT marker (N-cadherin)”. In addition, the “COL3A1 and COL4A6 (Western blot)” value in the data set on A549 [2] (A549, TGF-β1 24 h, ACF-2 co-treatment) is “dose-dependent reduction of fibrosis markers COL3A1 and COL4A6”. Also, the “Fibronectin, COL4A6, α-SMA (Western blot)” value with MRC-5 is reported as “same dose-dependent antifibrotic response”.

(Values after article PMC12721191, “Oxidative hypoxia drives TGF-β1–induced fibrosis under normoxia” (Redox Biology, 2025).)
